Earlier results as cited in patent EP0163237A2, “Di- and tri-peptidal renin inhibitors” (Merck & Co., Inc., priority 1984, dated 1985).
Where a SMILES comes first, the peptide text is derived from it. [ ]: non-standard residue; d: D form. The star is where a group is joined. Sta = CC(C)C[C@H](N)[C@@H](O)CC(=O)O; Isovaleryl = CC(C)CC(=O)*

System: hog renin
Settings: after the injection of hog renin into nephrectomized rats

CC(C)CC(=O)N[C@H](C(=O)N[C@H](C(=O)N[C@@H](CC(C)C)[C@@H](O)CC(=O)N[C@@H](C)C(=O)N[C@@H](CC(C)C)[C@@H](O)CC(=O)O)C(C)C)C(C)C [pepstatin] (Isovaleryl-VV[Sta]A[Sta]-OH)
blood pressure in vivo: reduce blood pressure
